What was measured:
fungal tyrosinase = assay: in vitro tyrosinase activity inhibition test; type: biochemical; conditions: decrease in maximum dopachrome formed (OD 475 nm, plateau) vs without inhibitor; inhibitor 50 mol. % relative to tyrosine; pH 6.5, 25° C.
From the text: According to this test, the quantity of dopachrome formed during the chain of reactions by which tyrosine is converted into melanins is monitored by visible spectrometry at 475 nm. These reactions are catalyzed in vitro by fungal tyrosinase in the presence of a reducing cosubstrate (for example L-dopa in a small quantity) to initiate the hydroxylation reaction of L-tyrosine into L-dopa. The L-dopa is then oxidized catalytically into dopaquinone and then into dopachrome, an intermediate formed prior to the nonenzymatic oxidation reactions that lead to formation of melanins.
The inhibitor concentrations are established at 50 mol. % relative to the tyrosine concentration in the reaction medium.
The effect of inhibition is expressed by the decrease in the maximum quantity of dopachrome formed (optical density value at 475 nm read from the plateau of the curve) relative to the quantity obtained in the absence of inhibitor.
A--0.1 M phosphate buffer, pH=6.5 (Tween 20, 1%)
B--Stock solution of L-tyrosine, 2×10^-3 M in A
C--Stock solution of L-dopa, 10^-4 M in A
D--Stock solution of fungal tyrosinase, 2400 units/ml, in A
E--Stock solution of inhibitor, 10^-2 M in A (solutions C and D must be prepared on the day of the experiment).
reference cell: 3 ml of A
homogenize and equilibrate at 25° C.
mix rapidly and observe kinetics by measuring absorbance at 475 nm as a function of time.

melanocyte = conditions: background statement; cited from earlier work

Row | SMILES | % change in maximum dopachrome vs no inhibitor (fungal tyrosinase) | irritation and cytotoxicity to the melanocyte (melanocyte)
1 | COC(=O)Cc1cc(O)c(C)cc1O | -87% | –
2 | Cc1cc(O)c(CC(=O)O)cc1O | -66% | –
3 | Cc1c(O)cc(CC(=O)O)c(O)c1C | -59% | –
4 | Cc1cc(O)c(CCC(=O)O)cc1O | -64% | –
5 | O=C(O)CCc1cc(O)ccc1O | -42% | –
6 | Oc1ccc(O)cc1 [hydroquinone, reference compound] | -33% | particularly irritating and cytotoxic to the melanocyte

Reference: patent US5585105A, “Utilization of derivatives of 2,5-dihydroxyphenylcarboxylic acids, their homologs, and their salts in preparation of a cosmetic or dermatological composition with a depigmenting action” (L'Oreal, priority 1991, dated 1996)
